Experimental data as given in article PMC3653315 (Biomolecular NMR assignments, 2011).

Target: Ssu72 (dSsu72) (Drosophila melanogaster, UniProt Q9VWE4)
Conditions: 25 mM Tris-HCl, 25 mM KCl, 2 mM dithiothreitol, 5% D2O, 30 °C; phosphate up to 25:1 molar ratio; active site loop

Chain of Ssu72 (dSsu72) (Q9VWE4 1-195): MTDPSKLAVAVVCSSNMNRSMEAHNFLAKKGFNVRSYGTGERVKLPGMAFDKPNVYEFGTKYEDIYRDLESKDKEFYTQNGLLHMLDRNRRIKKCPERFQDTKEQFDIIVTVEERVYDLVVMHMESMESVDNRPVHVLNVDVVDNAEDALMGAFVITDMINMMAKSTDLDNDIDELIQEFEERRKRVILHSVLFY

How did the “NMR titration, 1H/15N-HSQC-TROSY chemical shift perturbation” value turn out when O=P(O)(O)O [inorganic phosphate] was run?
Its value is “large number of significant perturbations upon titration of wild-type Ssu72 with inorganic phosphate”.
